The values below come from patent US8501746B2, “Organic compounds” (Xenon Pharmaceuticals Inc., priority 2006, dated 2013).

The melting point is the temperature of the solid-liquid transition.

Some results are limits rather than exact numbers.

Consider `Cc1nc(-n2ccc(COc3ccccc3)cc2=O)sc1C(=O)NCc1ccccc1` [Example 3.18, N-Benzyl-4-methyl-2-(2-oxo-4-(phenoxymethyl)pyridin-1(2H)-yl)thiazole-5-carboxamide], for which the melting point is 175 to 177 °C. For the compound `Cc1cc(-n2ccc(OCc3ccccc3)cc2=O)sc1C(=O)NCc1ccc(F)cc1` [Example 3.21, 5-(4-(Benzyloxy)-2-oxopyridin-1(2H)-yl)-N-(4-fluorobenzyl)-3-methylthiophene-2-carboxamide], the melting point fell in the range of 175 to 177 °C. The compound `Cc1cc(-n2ccc(OCc3ccccc3)cc2=O)sc1C(=O)NCc1cccc(F)c1` [Example 3.22, 5-(4-(Benzyloxy)-2-oxopyridin-1(2H)-yl)-N-(3-fluorobenzyl)-3-methylthiophene-2-carboxamide] showed a melting point of 140 to 141 °C. In the case of `CCNC(=O)c1sc(-n2ccc(OCc3ccccc3)cc2=O)cc1C` [Example 3.23, 5-(4-(Benzyloxy)-2-oxopyridin-1(2H)-yl)-N-ethyl-3-methylthiophene-2-carboxamide] it was 158 to 160 °C; in that of `Cc1nc(-n2ccc(C(F)(F)F)cc2=O)sc1C(=O)NCc1cccnc1` [Example 3.24, 4-Methyl-2-(2-oxo-4-(trifluoromethyl)pyridin-1(2H)-yl)-N-(pyridin-3-ylmethyl)thiazole-5-carboxamide], 172 to 173 °C.

Take `Cc1nc(-n2ccc(OCc3ccccc3)cc2=O)sc1C(=O)NCc1cccnc1` [Example 3.25, 2-(4-(Benzyloxy)-2-oxopyridin-1(2H)-yl)-4-methyl-N-(pyridin-3-ylmethyl)thiazole-5-carboxamide]: the melting point lay in the range of 208 to 209 °C.

`Cc1nc(-n2ccc(NC(=O)c3ccccc3)cc2=O)sc1C(=O)NCc1ccccc1` [Example 4, 2-(4-Benzamido-2-oxopyridin-1(2H)-yl)-N-benzyl-4-methylthiazole-5-carboxamide] had a melting point of 246 to 248 °C.

Compound `Cc1nc(-n2ccc(NCc3ccccc3)cc2=O)sc1C(=O)NCc1ccccc1` [Example 5, N-benzyl-2-(4-(benzylamino)-2-oxopyridin-1(2H)-yl)-4-methylthiazole-5-carboxamide] had a melting point of 253 to 255 °C. The compound `Cc1nc(-n2ccc(OCc3cccnc3)cc2=O)sc1C(=O)NCc1ccccc1` [Example 6, N-Benzyl-4-methyl-2-(2-oxo-4-(pyridin-3-ylmethoxy)pyridin-1(2H)-yl)thiazole-5-carboxamide] displayed a melting point of 214 to 216 °C. `Cc1nc(-n2ccc(OCc3ccccn3)cc2=O)sc1C(=O)NCc1ccccc1` [Example 6.1, N-Benzyl-4-methyl-2-(2-oxo-4-(pyridin-2-ylmethoxy)pyridin-1(2H)-yl)thiazole-5-carboxamide] had a melting point of 202 to 205 °C. With `Cc1nc(-n2cccc(O)c2=O)sc1C(=O)NCc1ccccc1` [Example 7, N-Benzyl-2-(3-hydroxy-2-oxopyridin-1(2H)-yl)-4-methylthiazole-5-carboxamide] the figure was 225 to 228 °C; with `O=C(NCc1ccccc1)c1csc(-n2ccc(O)cc2=O)c1` [Example 7.3, N-Benzyl-5-(4-hydroxy-2-oxopyridin-1(2H)-yl)thiophene-3-carboxamide], 150 °C (dec.). With `Cc1cc(-n2ccc(O)cc2=O)sc1C(=O)NCc1ccccc1` [Example 7.4, N-Benzyl-5-(4-hydroxy-2-oxopyridin-1(2H)-yl)-3-methylthiophene-2-carboxamide] the figure was 98 °C (dec.); with `Cc1cc(-n2ccc(O)cc2=O)sc1C(=O)NCc1ccc(F)cc1` [Example 7.7, N-(4-Fluorobenzyl)-5-(4-hydroxy-2-oxopyridin-1(2H)-yl)-3-methylthiophene-2-carboxamide], 95 °C (dec.). For `Cc1cc(-n2ccc(O)cc2=O)sc1C(=O)NCc1cccc(F)c1` [Example 7.8, N-(3-Fluorobenzyl)-5-(4-hydroxy-2-oxopyridin-1(2H)-yl)-3-methylthiophene-2-carboxamide], the melting point was 140 to 142 °C.

`CCNC(=O)c1sc(-n2ccc(O)cc2=O)cc1C` [Example 7.9, N-Ethyl-5-(4-hydroxy-2-oxopyridin-1(2H)-yl)-3-methylthiophene-2-carboxamide]: the melting point fell in the range of 183 to 184 °C. With `Cc1nc(-n2ccc(O)cc2=O)sc1C(=O)NCc1cccnc1` [Example 7.10, 2-(4-Hydroxy-2-oxopyridin-1(2H)-yl)-4-methyl-N-(pyridin-3-ylmethyl)thiazole-5-carboxamide] the figure was 238 to 240 °C. In the case of `O=C(NCc1ccccc1)c1csc(-n2ccc(OCc3ccccc3)cc2=O)c1` [Example 8, N-Benzyl-5-(4-(benzyloxy)-2-oxopyridin-1(2H)-yl)thiophene-3-carboxamide] it was 162 to 163 °C. The compound `Cc1cc(-n2ccc(OCc3ccccc3)cc2=O)sc1C(=O)NCc1ccccc1` [Example 8.1, N-Benzyl-5-(4-(benzyloxy)-2-oxopyridin-1(2H)-yl)-3-methylthiophene-2-carboxamide] registered a melting point of 153 to 154 °C. As to `Cc1cc(-n2ccc(OCCC3CC3)cc2=O)sc1C(=O)NCc1ccccc1` [Example 9, N-Benzyl-5-(4-(2-cyclopropylethoxy)-2-oxopyridin-1(2H)-yl)-3-methylthiophene-2-carboxamide], the melting point fell in the range of 134 to 136 °C. `Cc1cc(-n2ccc(OCc3ccc(C(F)(F)F)cc3)cc2=O)sc1C(=O)NCc1ccccc1` [Example 9.1, N-Benzyl-3-methyl-5-(2-oxo-4-(4-(trifluoromethyl)benzyloxy)pyridin-1(2H)-yl)thiophene-2-carboxamide] came in with a melting point of 225 to 227 °C. The compound `Cc1cc(-n2ccc(OCc3ccc(F)cc3)cc2=O)sc1C(=O)NCc1ccccc1` [Example 9.2, N-Benzyl-5-(4-(4-fluorobenzyloxy)-2-oxopyridin-1(2H)-yl)-3-methylthiophene-2-carboxamide] had a melting point of 195 to 197 °C.

Regarding `Cc1cc(-n2ccc(OCc3ccc(OC(F)F)cc3)cc2=O)sc1C(=O)NCc1ccccc1` [Example 9.3, N-Benzyl-5-(4-(4-(difluoromethoxy)benzyloxy)-2-oxopyridin-1(2H)-yl)-3-methylthiophene-2-carboxamide], the melting point is 178 to 180 °C. Consider `Cc1cc(-n2ccc(OCCc3ccccc3)cc2=O)sc1C(=O)NCc1ccccc1` [Example 9.4, N-Benzyl-3-methyl-5-(2-oxo-4-phenethoxypyridin-1(2H)-yl)thiophene-2-carboxamide], for which the melting point lay in the range of 159 to 160 °C.

Compound `Cc1cc(-n2ccc(OCC3CC3)cc2=O)sc1C(=O)NCc1ccccc1` [Example 9.5, N-Benzyl-5-(4-(cyclopropylmethoxy)-2-oxopyridin-1(2H)-yl)-3-methylthiophene-2-carboxamide] showed a melting point of 175 to 177 °C. In the case of `Cc1nc(-n2ccc(OCc3ccc(C(F)(F)F)o3)cc2=O)sc1C(=O)NCc1ccccc1` [Example 9.7] it was 214 to 216 °C; in that of `Cc1nc(-n2ccc(OCc3ccc(C(F)(F)F)cc3)cc2=O)sc1C(=O)NCc1ccccc1` [Example 9.8, N-Benzyl-4-methyl-2-(2-oxo-4-(4-(trifluoromethyl)benzyloxy)pyridin-1(2H)-yl)thiazole-5-carboxamide], 278 to 280 °C; in that of `Cc1nc(-n2ccc(OCc3ccc(OC(F)F)cc3)cc2=O)sc1C(=O)NCc1ccc(F)cc1` [Example 9.9, 2-(4-(4-(Difluoromethoxy)benzyloxy)-2-oxopyridin-1(2H)-yl)-N-(4-fluorobenzyl)-4-methylthiazole-5-carboxamide], 242 to 244 °C.

Compound `Cc1nc(-n2ccc(OCC3CCCC3)cc2=O)sc1C(=O)NCc1ccccc1` [Example 9.10, N-Benzyl-2-(4-(cyclopentylmethoxy)-2-oxopyridin-1(2H)-yl)-4-methylthiazole-5-carboxamide] came in with a melting point of 196 to 198 °C. On to `COc1ccn(-c2nc(C)c(C(=O)NCc3ccc(F)c(F)c3)s2)c(=O)c1` [Example 9.11, N-(3,4-Difluorobenzyl)-2-(4-methoxy-2-oxopyridin-1(2H)-yl)-4-methylthiazole-5-carboxamide], for which the melting point lay within 183 to 185 °C. Compound `Cc1nc(-n2ccc(OCC3CCCO3)cc2=O)sc1C(=O)NCc1ccccc1` (centres unmarked) [Example 9.12, N-Benzyl-4-methyl-2-(2-oxo-4-((tetrahydrofuran-2-yl)methoxy)pyridin-1(2H)-yl)thiazole-5-carboxamide] gave a melting point of 181 to 183 °C. For `Cc1nc(-n2ccc(-c3ccc(Cl)cc3)cc2=O)sc1C(=O)NCc1ccccc1` [Example 10, N-Benzyl-2-(4-(4-chlorophenyl)-2-oxopyridin-1(2H)-yl)-4-methylthiazole-5-carboxamide], the melting point lay in the range of 265 to 267 °C. In the case of `CCOC(=O)c1[nH]c(-n2ccc(OCc3ccccc3)cc2=O)nc1C` [Example 12.2, Ethyl 2-(4-(benzyloxy)-2-oxopyridin-1(2H)-yl)-4-methyl-1H-imidazole-5-carboxylate] it was 135 to 136 °C; in that of `Cc1nc(-n2ccc(OCc3ccc(C(F)(F)F)o3)cc2=O)sc1C(=O)O` [Example 13.6], 261 to 263 °C; in that of `Cc1nc(-n2ccc(OCc3ccc(F)cc3)cc2=O)sc1C(=O)O` [Example 13.7, 2-(4-(4-Fluorobenzyloxy)-2-oxopyridin-1(2H)-yl)-4-methylthiazole-5-carboxylic acid], over 300 °C. `CCOC(=O)c1sc(-n2ccc(O)cc2=O)nc1C` [Example 14, Ethyl 2-(4-Hydroxy-2-oxopyridin-1(2H)-yl)-4-methylthiazole-5-carboxylate]: the melting point was in the range of 270 to 273 °C.

For the compound `CCOC(=O)c1sc(-n2ccc(OCC3CC3)cc2=O)nc1C` [Example 15, Ethyl 2-(4-(Cyclopropylmethoxy)-2-oxopyridin-1(2H)-yl)-4-methylthiazole-5-carboxylate], the melting point was in the range of 180 to 183 °C. In the case of `CCOC(=O)c1sc(-n2ccc(OC)cc2=O)nc1C` [Example 15.1, Ethyl 2-(4-Methoxy-2-oxopyridin-1(2H)-yl)-4-methylthiazole-5-carboxylate] it was 163 to 165 °C.
